US7393824B1, “Methods of peptide preparation” (Lytix Biopharma, priority 2000, dated 2008)
Read-outs that look alike come from different tables or passages of the source. Residues, ends and D or L forms follow the SMILES beside them.

What was measured:
Type in all cases: cell-based
[1] = system: Meth A murine sarcoma cell line
Experimental: Peptide solutions (0.1 ml) were added and the plates incubated at 37° C. for 30 minutes, 4 hours or 24 hours. The cytotoxicity was measured using the MTT method (Mosmann et al., J. Immunol. (1986) 136, 2348-2357).

[2] = system: MRC-5 cells (normal fibroblasts); assay: Fibroblast assay (MTT)
Experimental: The cells were washed with PBS and then trypsinated using 2 ml trypsin (for a 80 cm culture flask). After the cells had detached from the wall, usually after ca 3 min. of incubation, 5 ml medium with FBS were added. The cells were resuspended and counted. The cells were then transferred to a centrifugation tube and spinned at 1500 rpm for 10 min. The supernatant was removed and the cells resuspended to a concentration of 1×10^5 cells/ml. 100 ul cells suspension was transferred to each well in a 96-well microtiter plate and incubated for 25 hours to allow the cells to attach. Following the incubation, the medium containing serum was removed by turning the plate upside down against a piece of tissue. 100 ul medium without serum and L-glutamine (assay medium) was added to each well, and then removed as before. This was done to remove any trace of serum. […] The rest of the assay was done as previously described for methA, except that after the 2 hour incubation following MTT addition, 80 ul medium instead of 130 ul were removed.

human red blood cells = assay: Hemolytic assay
Experimental: The hemolytic activities of the peptides were determined using fresh human red blood cells. 8 ml blood was taken from a healthy person. 4 ml blood was transferred to a polycarbonate tube containing heparin to a final concentration of 10 U/ml, and the remaining 4 ml blood was transferred to a glass tube containing EDTA with final concentration of 15% EDTA. The erythrocytes were isolated from heparin-treated blood by centrifugation in 1500 rpm for 10 min and washed three times with phosphate-buffered saline (PBS) to remove plasma and buffy coat. The cell pellet was resuspended in PBS to make the final volume of 4 ml. The peptide was diluted to a concentration of 2 mg/ml and 0.1 mg/ml. The peptide was further diluted to the concentrations as stated in Table 1. For each tube PBS was added first, then RBCs and peptide solutions. The hematocrit in the blood treated with EDTA was determined after 30 min with Sysmex K-1000, and the resuspended RBCs were diluted into 10% hematocrit. RBCs in PBS (1%) with and without peptides (Table 18) were incubated in a shaker at […] for 1 hour and then centrifuged at 4000 rpm for 5 min. The supernatant were carefully transferred to new polycarbonate tubes and the absorbance of the supernatant was measured at 540 nm. Baseline hemolysis was hemoglobin released in the presence of PBS, and 100% hemolysis was hemoglobin released in the presence of 0.1% Triton X-100.

[3] = system: Escherichia coli ATCC 25922; settings: Table 2
Experimental: The bacterial strains used were: Escherichia coli ATCC 25922 and Staphylococcus aureus ATCC 25923. All strains were stored at −70° C. The bacteria were grown in 2% Bacto Peptone water (Difco 1807-17-4). All tests were performed with bacteria in mid-logarithmic growth phase. Determination of the minimum inhibitory concentration (MIC) of the peptides for bacterial strains were performed in 1% Bacto Peptone water. A standard microdilution technique with an inoculum of 2×10^6 CFU/ml was used. All assays were performed in triplets. Since the peptides are positively charged and therefore could adhere to the plastic wells, we controlled the actual concentration of the peptides in the solution by HPLC. There was no difference between the concentration of the peptides before or after adding the solution to the plastic wells.

[4] = Table 3, unit inferred, read-out: Meth A IC50
[5] = Table 3, unit inferred, read-out: Fib IC50
[6] = Table 3, unit inferred, read-out: RBC EC50

Row | IC50 [1, 4] | Molecule | IC50 [2, 5] | EC50 (human red blood cells; [6]) | other results
1 | 32 µM | WKWAKKAWKWAKKAA [KA21, 15-mer] | > 530 µM | > 530 µM | 
2 |  | C[C@H](NC(=O)[C@H](C)NC(=O)[C@H](CCCCN)NC(=O)[C@H](CCCCN)NC(=O)[C@H](C)NC(=O)[C@H](C)NC(=O)[C@@H](N)CCCCN)C(=O)N[C@@H](CCCCN)C(=O)N[C@@H](C)C(=O)N[C@@H](C)C(=O)N[C@@H](CCCCN)C(=O)N[C@@H](CCCCN)C(=O)N[C@@H](C)C(=O)N[C@@H](C)C(=O)N[C@@H](CCCCN)C(=O)N[C@@H](Cc1c[nH]c2ccccc12)C(=O)N[C@@H](C)C(=O)N[C@@H](CCCCN)C(=O)O [KA 18W16] (H-KAAKKAAKAAKKAAKWAK-OH; N-terminus and C-terminus assumed) |  |  | IC50 ([1]; 4 h): > 234 µM; IC50 [2]: > 234 µM; EC50 (human red blood cells; red cells of human): > 467 µM
3 | 8 µM | KKAWKWAKKAWKWAKKA [KA18] | 115 µM | > 451 µM | 
4 |  | CC[C@H](C)[C@H](NC(=O)[C@H](C)NC(=O)[C@H](Cc1c[nH]c2ccccc12)NC(=O)[C@H](CCCNC(=N)N)NC(=O)[C@H](Cc1ccccc1)NC(=O)[C@H](C)NC(=O)[C@H](CCCCN)NC(=O)[C@H](CCCNC(=N)N)NC(=O)[C@H](Cc1c[nH]c2ccccc12)NC(=O)[C@H](C)NC(=O)[C@@H]1CCCN1)C(=O)N[C@@H](CCCNC(=N)N)C(=O)N[C@@H](CCSC)C(=O)N[C@@H](CC(C)C)C(=O)N[C@@H](CCCCN)C(=O)N[C@@H](CCCCN)C(=O)N[C@@H](C)C(=O)N[C@@H](C)C(=O)O [W11→I11] (H-PAWRKAFRWAIRMLKKAA-OH; N-terminus and C-terminus assumed) |  |  | IC50 ([1]; 4 h): 6 µM; EC50 (human red blood cells; red cells of human): 63.6 µM; Mic E-coli [3]: ⅖
5 |  | C[C@H](NC(=O)[C@H](C)NC(=O)[C@H](CCCCN)NC(=O)[C@H](Cc1c[nH]c2ccccc12)NC(=O)[C@H](C)NC(=O)[C@H](CCCCN)NC(=O)[C@H](CCCCN)NC(=O)[C@H](C)NC(=O)[C@H](C)NC(=O)[C@@H](N)CCCCN)C(=O)N[C@@H](CCCCN)C(=O)N[C@@H](CCCCN)C(=O)N[C@@H](C)C(=O)N[C@@H](C)C(=O)N[C@@H](CCCCN)C(=O)N[C@@H](Cc1c[nH]c2ccccc12)C(=O)N[C@@H](C)C(=O)N[C@@H](CCCCN)C(=O)O [KA W7,16] (H-KAAKKAWKAAKKAAKWAK-OH; N-terminus and C-terminus assumed) |  |  | IC50 ([1]; 4 h): > 222 µM; IC50 [2]: > 222 µM; EC50 (human red blood cells; red cells of human): > 444 µM
6 |  | C[C@H](NC(=O)[C@H](C)NC(=O)[C@H](CCCCN)NC(=O)[C@H](CCCCN)NC(=O)[C@H](C)NC(=O)[C@H](Cc1c[nH]c2ccccc12)NC(=O)[C@H](CCCCN)NC(=O)[C@H](Cc1c[nH]c2ccccc12)NC(=O)[C@H](C)NC(=O)[C@H](CCCCN)NC(=O)[C@H](CCCCN)NC(=O)[C@H](C)NC(=O)[C@H](C)NC(=O)[C@@H](N)CCCCN)C(=O)N[C@@H](CCCCN)C(=O)N[C@@H](Cc1c[nH]c2ccccc12)C(=O)N[C@@H](C)C(=O)N[C@@H](CCCCN)C(=O)O [KA 18W7,9,16] (H-KAAKKAWKWAKKAAKWAK-OH; N-terminus and C-terminus assumed) |  |  | IC50 ([1]; 4 h): 32 µM; IC50 [2]: > 211 µM; EC50 (human red blood cells; red cells of human): > 422 µM
7 | 24 µM | (KAAKKAA)3 Bip9,16 [KA27] | > 429 µM | > 429 µM | 
8 | > 222 µM | (KAAKKAA)3 W9,16 [KA 7] | > 444 µM | > 444 µM | 
9 |  | CC[C@H](C)[C@H](NC(=O)[C@H](CCCNC(=N)N)NC(=O)[C@H](Cc1ccccc1)NC(=O)[C@H](C)NC(=O)[C@H](CCCCN)NC(=O)[C@H](CCCNC(=N)N)NC(=O)[C@H](Cc1c[nH]c2ccccc12)NC(=O)[C@H](C)NC(=O)[C@@H]1CCCN1)C(=O)N[C@@H](C)C(=O)N[C@@H](Cc1c[nH]c2ccccc12)C(=O)N[C@@H](CCCNC(=N)N)C(=O)N[C@@H](CCSC)C(=O)N[C@@H](CC(C)C)C(=O)N[C@@H](CCCCN)C(=O)N[C@@H](CCCCN)C(=O)N[C@@H](C)C(=O)N[C@@H](C)C(=O)O [W9→I9] (H-PAWRKAFRIAWRMLKKAA-OH; N-terminus and C-terminus assumed) |  |  | EC50 (human red blood cells; red cells of human): 155 µM
10 |  | C[C@H](NC(=O)[C@H](C)NC(=O)[C@H](CCCCN)NC(=O)[C@H](CCCCN)NC(=O)[C@H](Cc1c[nH]c2ccccc12)NC(=O)[C@H](C)NC(=O)[C@H](CCCCN)NC(=O)[C@H](C)NC(=O)[C@H](Cc1c[nH]c2ccccc12)NC(=O)[C@H](CCCCN)NC(=O)[C@H](CCCCN)NC(=O)[C@H](C)NC(=O)[C@H](C)NC(=O)[C@@H](N)CCCCN)C(=O)N[C@@H](CCCCN)C(=O)N[C@@H](C)C(=O)N[C@@H](Cc1c[nH]c2ccccc12)C(=O)N[C@@H](CCCCN)C(=O)O [KA 18W6,10,17] (H-KAAKKWAKAWKKAAKAWK-OH; N-terminus and C-terminus assumed) |  |  | IC50 ([1]; Table 1, KA18 peptides, read-out: IC50 Meth A): ≥ 211 µM; IC50 [2]: > 211 µM; EC50 (human red blood cells; red cells of human): > 422 µM
11 | 4 µM | (KAAKKAA)3 W2,9,16,20 [KA 8] | 23 µM | > 402 µM | 
12 | 30 µM | KKWAKKAWKWAKKAW [KA22, 15-mer] | > 514 µM | > 514 µM | 
13 | 28 µM | (KAAKKAA)3 W7,9,16 [KA 32] | > 422 µM | > 422 µM | 
14 |  | C[C@H](NC(=O)[C@H](C)NC(=O)[C@H](CCCCN)NC(=O)[C@H](C)NC(=O)[C@H](C)NC(=O)[C@H](CCCCN)NC(=O)[C@H](CCCCN)NC(=O)[C@H](Cc1c[nH]c2ccccc12)NC(=O)[C@H](C)NC(=O)[C@H](CCCCN)NC(=O)[C@H](C)NC(=O)[C@H](C)NC(=O)[C@H](CCCCN)NC(=O)[C@H](CCCCN)NC(=O)[C@H](C)NC(=O)[C@H](C)NC(=O)[C@@H](N)CCCCN)C(=O)N[C@@H](CCCCN)C(=O)O [KA 18W10] (H-KAAKKAAKAWKKAAKAAK-OH; N-terminus and C-terminus assumed) |  |  | IC50 ([1]; 4 h): > 234 µM; IC50 [2]: > 234 µM; EC50 (human red blood cells; red cells of human): > 467 µM
15 |  | CSCC[C@H](NC(=O)[C@H](CCCNC(=N)N)NC(=O)[C@H](Cc1c[nH]c2ccccc12)NC(=O)[C@H](C)NC(=O)[C@H](Cc1c[nH]c2ccccc12)NC(=O)[C@H](CCCNC(=N)N)NC(=O)[C@H](Cc1ccccc1)NC(=O)[C@H](C)NC(=O)[C@H](CCCCN)NC(=O)[C@H](CCCNC(=N)N)NC(=O)[C@H](Cc1c[nH]c2ccccc12)NC(=O)[C@H](C)NC(=O)[C@@H]1CCCN1)C(=O)N[C@@H](CC(C)C)C(=O)N[C@@H](CCCCN)C(=O)N[C@@H](CCCCN)C(=O)N[C@@H](C)C(=O)N[C@@H](C)C(=O)O [LFB (14-31)m, PAWRKAFRWAWRMLKKAA] (H-PAWRKAFRWAWRMLKKAA-OH) |  |  | toxicity to fibroblasts [2]: highly toxic to fibroblasts
16 | 16 µM | (KAAKKAA)3 W2,3,20 [KA15] | 246 µM | > 422 µM | 
17 | 5 µM | (KAAKKAA)3 W7,9,14,16 [KA 4] | 30 µM | > 402 µM | 
18 | 140 µM | WKWAKKAAKWAWKAA [KA20, 15-mer] | 307 µM | > 546 µM | 
19 | 29 µM | (KAAKKAA)3 W7,16,17 [KA24] | > 422 µM | > 422 µM | 
20 | 15 µM | (KAAKKAA)3 W2,9,16 [KA 5] | 302 µM | > 422 µM | 
21 | 110 µM | (KAAKKAA)3 W7,10,17 [KA23] | > 422 µM | > 422 µM | 
22 | 147 µM | (KAAKKAA)3 W6,10,17 [KA 31] | > 422 µM | > 422 µM | 
23 | 5 µM | (OAAOOAA)3 W7,9,14,16 [KA14] | 60 µM | > 424 µM | 
24 | 37 µM | (KAAKKAA)3 F2,9,16,20 [KA17] | > 429 µM | > 429 µM | 
25 | 19 µM | (KAAKKAA)3 W2,3,20,21 [KA19] | 374 µM | > 402 µM | 
